Measured values published in US20120214862A1, “MODULATION OF FACTOR 7 EXPRESSION” (ISIS Pharmaceuticals, Inc., priority 2009, published 2012).
In the oligonucleotide strings, read from the 5' end, every base follows the letter of its sugar. An asterisk marks phosphorothioate; unmarked linkages are phosphodiester. Other units and linkages are bracketed, terminal groups are in braces. A string of capitals states the bases alone. e = 2'-O-(2-methoxyethyl) (MOE); [5mC] = 5-methylcytosine; d = 2'-deoxy (DNA)

How the values were obtained:
Format in all cases: cell-based
human Factor 7 mRNA [1] = assay: Dose-dependent antisense inhibition of human Factor 7 in HepB3 cells, transfection with lipofectin; details: lipofectin, HepB3 cells, 16 hours
Description: Cells were plated at a density of 4,000 cells per well and treated with lipofectin reagent with 3.125 nM, 6.25 nM, 12.5 nM, 25 nM, 50 nM, and 100 nM concentrations of antisense oligonucleotide, as indicated in Table 3. After a treatment period of approximately 16 hours, RNA was isolated from the cells and Factor 7 mRNA levels were measured by real-time RT-PCR, as described herein. Human Factor 7 primer probe set RTS 2927 (forward sequence: […], incorporated herein as SEQ ID NO: 164; reverse sequence: […], incorporated herein as SEQ ID NO: 165; probe sequence: TGGGTGGTCTCCGCGGCCX, incorporated herein as SEQ ID NO: 166) was used to measure mRNA levels. Factor 7 mRNA levels were adjusted according to total RNA content as measured by RIBOGREEN®. Results are presented as percent inhibition of Factor 7, relative to untreated control cells.
Cells were plated at a density of 4,000 cells per well and transfected using lipofectin reagent with 6.25 nM, 12.5 nM, 25.0 nM, 50.0 nM, and 100.0 nM concentrations of antisense oligonucleotide, as indicated in Table 7. After a treatment period of approximately 16 hours, RNA was isolated from the cells and Factor 7 mRNA levels were measured by real-time RT-PCR, as described herein. Human Factor 7 primer probe set RTS 2927 was used to measure mRNA levels. Factor 7 mRNA levels were adjusted according to total RNA content as measured by RIBOGREEN®. Results are presented as percent inhibition of Factor 7, relative to untreated control cells.
(§1) Cells were plated at a density of 4,000 cells per well and transfected using lipofectin reagent with 3.125 nM, 6.25 nM, 12.5 nM, 25 nM, 50 nM, and 100 nM concentrations of antisense oligonucleotide, as specified in Table 14. After a treatment period of approximately 16 hours, RNA was isolated from the cells and Factor 7 mRNA levels were measured by quantitative real-time PCR. Human Factor 7 primer probe set RTS 2927 was used to measure mRNA levels. Factor 7 mRNA levels were adjusted according to total RNA content, as measured by RIBOGREEN®. Results are presented as percent inhibition of Factor 7, relative to untreated control cells.

human Factor 7 mRNA [2] = assay: Antisense inhibition of human Factor 7 mRNA in HepB3 cells, lipofectin, 50 nM, real-time RT-PCR; details: HepB3 cells
Summary of the method: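 Percent inhibition, untreated cells as reference: derived from RNA collected about 24 hours post-transfection of 4,000-cell wells, with the human RTS 2927 primer probe set and adjustment for total RNA content (RIBOGREEN®).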

human Factor 7 mRNA [3] = assay: Dose-dependent antisense inhibition of human Factor 7 in HepB3 cells, transfection with electroporation
Description: as §1, with “The gapmers were also transfected via electroporation and their dose-dependent inhibition of human Factor 7 mRNA was measured. Cells” for “Cells”, “20,000” for “4,000”, “via electroporation” for “using lipofectin reagent”, “μM,” for “nM,”, “μM” for “nM”, “15.” for “14.”
Cells were plated at a density of 20,000 cells per well and transfected via electroporation with 3.125 μM, 6.25 μM, 12.5 μM, 25 μM, 50 μM, and 100 μM concentrations of antisense oligonucleotide, as specified in Table 16. After a treatment period of approximately 16 hours, RNA was isolated from the cells and human Factor 7 mRNA levels were measured by quantitative real-time PCR. Human Factor 7 primer probe set RTS 2927 was used to measure mRNA levels. Factor 7 mRNA levels were adjusted according to total RNA content, as measured by RIBOGREEN®. Results are presented as percent inhibition of Factor 7, relative to untreated control cells.

[4] = gapmers (5-10-5, 3-14-3, 2-13-5 MOE) targeted to nucleobases 4868 to 4899 of SEQ ID NO: 1
[5] = 3.125 μM, 16 hours (Example 7, Table 15)
[6] = 3.125 μM, 16 hours (Example 8, Table 16)
[7] = 6.25 μM, 16 hours (Example 7, Table 15)
[8] = 6.25 μM, 16 hours (Example 8, Table 16)
[9] = 12.5 μM, 16 hours (Example 7, Table 15)
[10] = 12.5 μM, 16 hours (Example 8, Table 16)
[11] = 25 μM, 16 hours (Example 7, Table 15)
[12] = 25 μM, 16 hours (Example 8, Table 16)
[13] = 50 μM, 16 hours (Example 7, Table 15)
[14] = 50 μM, 16 hours (Example 8, Table 16)
[15] = 100 μM, 16 hours (Example 7, Table 15)
[16] = 100 μM, 16 hours (Example 8, Table 16)
[17] = gapmers targeted to nucleobases 13760 to 13789 of SEQ ID NO: 1 (Table 10)

Substance | percent inhibition of Factor 7 mRNA, relative to untreated control cells (human Factor 7 mRNA [1]; 3.125 nM) [%] | percent inhibition of Factor 7 mRNA, relative to untreated control cells (human Factor 7 mRNA [1]; 12.5 nM) [%] | percent inhibition of Factor 7 mRNA, relative to untreated control cells (human Factor 7 mRNA [1]; 25 nM) [%] | percent inhibition of Factor 7 mRNA, relative to untreated control cells (human Factor 7 mRNA [1]; 50 nM) [%] | percent inhibition of Factor 7 mRNA, relative to untreated control cells (human Factor 7 mRNA [1]; 100 nM) [%] | percent inhibition of Factor 7 mRNA, relative to untreated control cells (human Factor 7 mRNA [1]) [%] | % Inhibition of human Factor 7 mRNA levels (human Factor 7 mRNA [2]; [4]) [%] | percent inhibition of Factor 7 mRNA, relative to untreated control cells (human Factor 7 mRNA [3]; [5]) [%] | percent inhibition of Factor 7 mRNA, relative to untreated control cells (human Factor 7 mRNA [3]; [6]) [%] | percent inhibition of Factor 7 mRNA, relative to untreated control cells (human Factor 7 mRNA [3]; [7]) [%] | percent inhibition of Factor 7 mRNA, relative to untreated control cells (human Factor 7 mRNA [3]; [8]) [%] | percent inhibition of Factor 7 mRNA, relative to untreated control cells (human Factor 7 mRNA [3]; [9]) [%] | percent inhibition of Factor 7 mRNA, relative to untreated control cells (human Factor 7 mRNA [3]; [10]) [%] | percent inhibition of Factor 7 mRNA, relative to untreated control cells (human Factor 7 mRNA [3]; [11]) [%] | percent inhibition of Factor 7 mRNA, relative to untreated control cells (human Factor 7 mRNA [3]; [12]) [%] | percent inhibition of Factor 7 mRNA, relative to untreated control cells (human Factor 7 mRNA [3]; [13]) [%] | percent inhibition of Factor 7 mRNA, relative to untreated control cells (human Factor 7 mRNA [3]; [14]) [%] | percent inhibition of Factor 7 mRNA, relative to untreated control cells (human Factor 7 mRNA [3]; [15]) [%] | percent inhibition of Factor 7 mRNA, relative to untreated control cells (human Factor 7 mRNA [3]; [16]) [%] | % Inhibition of human Factor 7 mRNA levels (human Factor 7 mRNA [2]; [17]) [%]
422296 (antisense e[5mC]*e[5mC]*dG*dA*dG*dT*dT*d[5mC]*dT*dG*d[5mC]*dA*dG*dG*dA*eG*e[5mC]*eG*eG*e[5mC]) [compound 422296] | 21 | 39 | 67 | 78 | 82 | 27 | 74 | 62 | 47 | 40 | 44 | 56 | 70 | 56 | 78 | 82 | 80 | 84 | 82 | –
422183 (antisense eG*e[5mC]*eG*d[5mC]*d[5mC]*dA*d[5mC]*d[5mC]*d[5mC]*dG*d[5mC]*d[5mC]*dG*dG*d[5mC]*dT*d[5mC]*eT*eG*e[5mC]) [compound 422183] | 28 | 56 | 78 | 84 | 88 | 37 | – | 16 | 2 | 28 | 3 | 37 | 24 | 44 | 50 | 59 | 64 | 71 | 71 | 79
422215 (antisense eG*eT*eT*d[5mC]*dT*dG*d[5mC]*dA*dG*dG*dA*dG*d[5mC]*dG*dG*d[5mC]*d[5mC]*eT*eA*eA) [compound 422215] | 13 | 54 | 65 | 84 | 82 | 30 | 73 | 11 | – | 9 | – | 31 | – | 50 | – | 68 | – | 84 | – | –
422252 (antisense e[5mC]*eG*d[5mC]*d[5mC]*dG*dG*d[5mC]*dT*d[5mC]*dT*dG*d[5mC]*dT*d[5mC]*dA*eT*e[5mC]*e[5mC]*e[5mC]*e[5mC]) [compound 422252] | 18 | 45 | 61 | 77 | 87 | 17 | – | 23 | – | 12 | – | 26 | – | 38 | – | 58 | – | 80 | – | 70
422177 (antisense e[5mC]*e[5mC]*e[5mC]*dG*d[5mC]*d[5mC]*dG*dG*d[5mC]*dT*d[5mC]*dT*dG*d[5mC]*dT*d[5mC]*dA*eT*e[5mC]*e[5mC]) [compound 422177] | 12 | 44 | 64 | 81 | 88 | 24 | – | 3 | – | 10 | – | 29 | – | 21 | – | 31 | – | 63 | – | 74
422295 (antisense e[5mC]*eG*dA*dG*dT*dT*d[5mC]*dT*dG*d[5mC]*dA*dG*dG*dA*dG*e[5mC]*eG*eG*e[5mC]*e[5mC]) [compound 422295] | 17 | 44 | 64 | 80 | 85 | 22 | 74 | 10 | – | 8 | – | 37 | – | 58 | – | 68 | – | 80 | – | –
